Test results: patent publication US11180462B2, “Microbiocidal oxadiazole derivatives” (SYNGENTA PARTICIPATIONS AG, priority 2015, dated 2021)

Assays:
Phakopsora Pachyrhizi = test: Fungicidal activity against Phakopsora pachyrhizi / soybean / leaf disc preventative (Asian soybean rust); type: in vivo; conditions: foliar, 200 ppm in the applied formulation, soybean leaf disks, compared to untreated control leaf disks, read-out: disease control
In short: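 Preventative soybean leaf-disc test: discs on water agar sprayed with diluted formulated compound, inoculated one day later with spores on the lower surface. Held 24–36 h dark at 20°C, 75% rh, then 12 h light/day; percent disease control versus untreated discs scored 12–14 days after application.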

[1] = test system: Puccinia recondita f. Sp. Tritici; test: Fungicidal activity against Puccinia recondita f. sp. tritici / wheat / leaf disc curative (brown rust); type: in vivo; conditions: foliar, 24 h, 200 ppm in the applied formulation, wheat leaf segments, curative (applied 1 day after inoculation), compared to untreated control leaf disks, read-out: disease control
In short: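 Wheat cv. Kanzler leaf segments on agar, inoculated with rust spore suspension, kept dark at 19° C and 75% RH; formulated compound sprayed 1 day post-inoculation. Incubated 19° C, 75% RH, 12 h light/12 h dark; percent disease control vs untreated scored 6 to 8 days after application.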

[2] = test system: Puccinia recondita f. Sp. Tritici; test: Fungicidal activity against Puccinia recondita f. sp. tritici / wheat / leaf disc preventative (brown rust); type: in vivo; conditions: foliar, 200 ppm in the applied formulation, wheat leaf segments, preventative, compared to untreated control leaf disks, read-out: disease control
In short: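 Compound application precedes infection: segments of wheat cv. Kanzler, sprayed at 200 ppm, are inoculated with a spore suspension after 1 day. Incubation is at 19° C. with 75% relative humidity and 12 h light/12 h darkness, and control versus untreated leaves is rated 7 to 9 days post-application.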

[3] = test system: Glomerella lagenarium (Colletotrichum lagenarium); test: Fungicidal activity against Glomerella lagenarium (Colletotrichum lagenarium) liquid culture / cucumber / preventative (anthracnose); type: cell-based; conditions: Colletotrichum orbiculare; 20 ppm in the applied formulation; liquid culture (PDB), growth inhibition measured photometrically after 3 to 4 days; compared to untreated control; read-out: disease control
In short: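 Photometric read-out of fungal growth after 2–7 days, expressed as percent antifungal activity versus untreated check. Cryo-stored conidia in PDB; compound at 20 ppm; dark, 24 °C, 96% RH.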

CON(Cc1ccc(-c2noc(C(F)(F)F)n2)cc1)C(=O)C1CCCCC1 [Compound 1.16, N-methoxy-N-[[4-[5-(trifluoromethyl)-1,2,4-oxadiazol-3-yl]phenyl]methyl]-cyclohexane-carboxamide]
≥ 80%: pest or weed control at 200 ppm (Phakopsora Pachyrhizi) | pest or weed control at 200 ppm [1] | pest or weed control at 200 ppm [2] | inhibition of growth at 20 ppm [3]

C#CCN(C)C(=O)N(Cc1ccc(-c2noc(C(F)(F)F)n2)cc1)OC [Compound 3.61, 1-methoxy-3-methyl-3-prop-2-ynyl-1-[[4-[5-(trifluoromethyl)-1,2,4-oxadiazol-3-yl]phenyl]methyl]urea]
≥ 80%: pest or weed control at 200 ppm (Phakopsora Pachyrhizi) | pest or weed control at 200 ppm [1] | pest or weed control at 200 ppm [2] | inhibition of growth at 20 ppm [3]

CON(C(=O)C1CC1F)C(C)c1ccc(-c2noc(C(F)(F)F)n2)cc1 (centres unmarked) [Compound 1.275, 2-fluoroN-methoxy-N-[1-[4-[5-(trifluoromethyl)-1,2,4-oxadiazol-3-yl]phenyl]ethyl]-cyclopropane-carboxamide]
≥ 80%: pest or weed control at 200 ppm (Phakopsora Pachyrhizi) | pest or weed control at 200 ppm [1] | pest or weed control at 200 ppm [2] | inhibition of growth at 20 ppm [3]

CCN(Cc1ccc(-c2noc(C(F)(F)F)n2)cc1)C(=O)C(C)C [Compound 1.503]
≥ 80%: pest or weed control at 200 ppm (Phakopsora Pachyrhizi) | pest or weed control at 200 ppm [1] | pest or weed control at 200 ppm [2] | inhibition of growth at 20 ppm [3]

CC1(C(=O)N(Cc2ccc(-c3noc(C(F)(F)F)n3)cc2)CC(F)(F)F)CC1 [Compound 1.696, 1-methyl-N-(2,2,2-trifluoroethyl)-N-[[4-[5-(trifluoromethyl)-1,2,4-oxadiazol-3-yl]phenyl]methyl]-cyclopropane-carboxamide]
≥ 80%: pest or weed control at 200 ppm (Phakopsora Pachyrhizi) | pest or weed control at 200 ppm [1] | pest or weed control at 200 ppm [2] | inhibition of growth at 20 ppm [3]

O=C(C1CCCO1)N(CCO)Cc1ccc(-c2noc(C(F)(F)F)n2)cc1 (centres unmarked) [Compound 1.726, N-(2-hydroxyethyl)-N-[[4-[5-(trifluoromethyl)-1,2,4-oxadiazol-3-yl]phenyl]methyl]-tetrahydrofuran-2-carboxamido]
≥ 80%: pest or weed control at 200 ppm (Phakopsora Pachyrhizi) | pest or weed control at 200 ppm [1] | pest or weed control at 200 ppm [2] | inhibition of growth at 20 ppm [3]

CON(Cc1ccc(-c2noc(C(F)(F)F)n2)cc1)C(=O)C1CC1(F)F (centres unmarked) [Compound 1.15, 2,2-difluoro-N-methoxy-N-[[4-[5-(trifluoromethyl)-1,2,4-oxadiazol-3-yl]phenyl]methyl]-cyclopropane-carboxamide]
≥ 80%: pest or weed control at 200 ppm (Phakopsora Pachyrhizi) | pest or weed control at 200 ppm [1] | pest or weed control at 200 ppm [2] | inhibition of growth at 20 ppm [3]

CON(Cc1c(F)cc(-c2noc(C(F)(F)F)n2)cc1F)C(=O)C1CCCO1 (centres unmarked) [Compound 1.597, N-[[2,6-difluoro-4-[5-(trifluoromethyl)-1,2,4-oxadiazol-3-yl]phenyl]methyl)-N-methoxy-tetrahydrofuran-2-carboxamide]
≥ 80%: pest or weed control at 200 ppm (Phakopsora Pachyrhizi) | pest or weed control at 200 ppm [1] | pest or weed control at 200 ppm [2] | inhibition of growth at 20 ppm [3]

C#CCOC(=O)NC(C(=O)N(Cc1ccc(-c2noc(C(F)(F)F)n2)cc1)OC)C(C)C (centres unmarked) [Compound 1.77, prop-2-ynyl N-[1-[methoxy-[[4-[5-(trifluoromethyl)-1,2,4-oxadiazol-3-yl]phenyl]methyl]carbamoyl]-2-methyl-propyl]carbamate]
≥ 80%: pest or weed control at 200 ppm (Phakopsora Pachyrhizi) | pest or weed control at 200 ppm [1] | pest or weed control at 200 ppm [2] | inhibition of growth at 20 ppm [3]

O=C(C1CSC1)N(Cc1ccc(-c2noc(C(F)(F)F)n2)cc1)C1CC1 [Compound 1.104, N-cyclopropyl-N-[[4-[5-(trifluoromethyl)-1,2,4-oxadiazol-3-yl]phenyl]methyl]-thietane-3-carboxamide]
≥ 80%: pest or weed control at 200 ppm (Phakopsora Pachyrhizi) | pest or weed control at 200 ppm [1] | pest or weed control at 200 ppm [2] | inhibition of growth at 20 ppm [3]

CC=CCC(=O)N(Cc1ccc(-c2noc(C(F)(F)F)n2)cc1)C1CC1 [Compound 1.114, N-cyclopropyl-N-[[4-[5-(trifluoromethyl)-1,2,4-oxadiazol-3-yl]phenyl]methyl]pent-3-enamide]
≥ 80%: pest or weed control at 200 ppm (Phakopsora Pachyrhizi) | pest or weed control at 200 ppm [1] | pest or weed control at 200 ppm [2] | inhibition of growth at 20 ppm [3]

CCN(Cc1ccc(-c2noc(C(F)(F)F)n2)cc1)C(=O)C(C)OC (centres unmarked) [Compound 1.512, N-ethyl-2-methoxy-N-[[4-[5-(trifluoromethyl)-1,2,4-oxadiazol-3-yl]phenyl]methyl]-propanamide]
≥ 80%: pest or weed control at 200 ppm (Phakopsora Pachyrhizi) | pest or weed control at 200 ppm [1] | pest or weed control at 200 ppm [2] | inhibition of growth at 20 ppm [3]

CC(C)N(Cc1ccc(-c2noc(C(F)(F)F)n2)cc1)C(=O)C1(C)CC1 [Compound 1.677, N-isopropyl-1-methyl-N-[[4-[5-(trifluoromethyl)-1,2,4-oxadiazol-3-yl]phenyl]methyl]-cyclopropane-carboxamide]
≥ 80%: pest or weed control at 200 ppm (Phakopsora Pachyrhizi) | pest or weed control at 200 ppm [1] | pest or weed control at 200 ppm [2] | inhibition of growth at 20 ppm [3]

COCC(=O)N(Cc1ccc(-c2noc(C(F)(F)F)n2)cc1)C1CC1 [Compound 1.777, N-cyclopropyl-2-methoxy-N-[[4-[5-(trifluoromethyl)-1,2,4-oxadiazol-3-yl]phenyl]methyl]-acetamide]
≥ 80%: pest or weed control at 200 ppm (Phakopsora Pachyrhizi) | pest or weed control at 200 ppm [1] | pest or weed control at 200 ppm [2] | inhibition of growth at 20 ppm [3]

O=C(OCCN(Cc1ccc(-c2noc(C(F)(F)F)n2)cc1)C(=O)C1CCCO1)C1CCCO1 (centres unmarked) [Compound 1.727, 2-[tetrahydrofuran-2-carbonyl-[[4-[5-(trifluoromethyl)-1,2,4-oxadiazol-3-yl]phenyl]methyl]-amino]ethyl tetrahydrofuran-2-carboxylate]
≥ 80%: pest or weed control at 200 ppm (Phakopsora Pachyrhizi) | pest or weed control at 200 ppm [1] | pest or weed control at 200 ppm [2] | inhibition of growth at 20 ppm [3]

CCCC(=O)N(Cc1ccc(-c2noc(C(F)(F)F)n2)cc1)OC [Compound 1.24, N-methoxy-N-[[4-[5-(trifluoromethyl)-1,2,4-oxadiazol-3-yl]phenyl]methyl]-butanamide]
≥ 80%: pest or weed control at 200 ppm (Phakopsora Pachyrhizi) | pest or weed control at 200 ppm [1] | pest or weed control at 200 ppm [2] | inhibition of growth at 20 ppm [3]

C=CCN(Cc1ccc(-c2noc(C(F)(F)F)n2)cc1)C(=O)C(C)CC (centres unmarked) [Compound 1.486, N-allyl-2-methyl-N-[[4-[5-(trifluoromethyl)-1,2,4-oxadiazol-3-yl]phenyl]methyl]-butanamide]
≥ 80%: pest or weed control at 200 ppm (Phakopsora Pachyrhizi) | pest or weed control at 200 ppm [1] | pest or weed control at 200 ppm [2] | inhibition of growth at 20 ppm [3]

COC(C)C(=O)N(Cc1ccc(-c2noc(C(F)(F)F)n2)cc1)OC (centres unmarked) [Compound 1.81, N,2-dimethoxy-N-[[4-[5-(trifluoromethyl)-1,2,4-oxadiazol-3-yl]phenyl]methyl]-propanamide]
≥ 80%: pest or weed control at 200 ppm (Phakopsora Pachyrhizi) | pest or weed control at 200 ppm [1] | pest or weed control at 200 ppm [2] | inhibition of growth at 20 ppm [3]

CCON(Cc1ccc(-c2noc(C(F)(F)F)n2)cc1)C(=O)COC [Compound 1.567, N-ethoxy-2-methoxy-N-[[4-[5-(trifluoromethyl)-1,2,4-oxadiazol-3-yl]phenyl]methyl]-acetamide]
≥ 80%: pest or weed control at 200 ppm (Phakopsora Pachyrhizi) | pest or weed control at 200 ppm [1] | pest or weed control at 200 ppm [2] | inhibition of growth at 20 ppm [3]

O=C(CC(F)(F)F)N(Cc1ccc(-c2noc(C(F)(F)F)n2)cc1)C1CC1 [Compound 1.111, N-cyclopropyl-3,3,3-trifluoro-N-[[4-[5-(trifluoromethyl)-1,2,4-oxadiazol-3-yl]phenyl]methyl]-propanamide]
≥ 80%: pest or weed control at 200 ppm (Phakopsora Pachyrhizi) | pest or weed control at 200 ppm [1] | pest or weed control at 200 ppm [2] | inhibition of growth at 20 ppm [3]
